Values of other authors as cited in patent US20220211667A1, “COMPOSITION FOR THE INTRAPERITONEAL TREATMENT OF SECONDARY BACTERIAL PERITONITIS WITH REDUCTION OF COMPLICATIONS” (priority 2019, published 2022).

What was measured:
[1] = test system: polymorphonuclear leukocytes
[2] = test system: strains of organisms from the susceptible genera
[3] = test system: Pseudomonas aeruginosa; details: maximum, for Pseudomonas aeruginosa; controlled clinical trials, oral or intravenous
[4] = test system: resistant bacterial strains; details: overall; controlled clinical trials, oral or intravenous
[5] = not given; remark: listed apart in the source
[6] = intraperitoneal; third and last day of treatment

## C[C@@H]1O[C@@H]1P(=O)(O)O [fosfomycin, [(2R,3S)-3-methyloxiran-2-yl]phosphonic acid]
Evidence of allergy
  eosinophilia: 0.2%
  transient rashes: 0.3 % of cases
In vivo
  transiently raised liver enzymes: 0.3 % of cases
[1]
  concentration in polymorphonuclear leukocytes relative to extracellular fluid: twice those of the extracellular fluid
[2]; early studies, various antibiotic combinations
  tested strains showing synergistic effect: 70-100%
[2]; subsequent more extensive studies
  synergy rates: 36-74%
[3]
  appearance of resistant bacterial strains: 15%
[4]
  appearance of resistant bacterial strains: 3.0%

## C[C@@H]1O[C@@H]1P(=O)(O)O.NC(CO)(CO)CO [Fosfomycin trometamol]
[5]
  solubility in water: highly soluble in water
  pH of 5% solution: 3.5-5.5

## GM-CSF: cytokine of the colony-stimulating factor family; mature human protein of 127 amino-acid residues, SEQ ID NO: 1
[6]
  patients with minor flu-like symptoms: 2 of 8

## C[C@@H]1O[C@@H]1P(=O)(O)O [Fosfomycin disodium]
[5]
  solubility in water: highly soluble in water
  pH of 5% solution: 9.0-10.5
